According to patent US20260014075A1, “IONIZABLE LIPID CONTAINING BIODEGRADABLE ESTER BOND AND LIPID NANOPARTICLES COMPRISING SAME” (ST PHARM CO., LTD., priority 2022, published 2026):

System: HeLa cells
Assay: In vitro efficacy of mFLuc mRNA-encapsulated lipid nanoparticles, luminescence
Assay type: cell-based
Conditions: 20 ng mFLuc-encapsulated LNP, 24 hours
Protocol: To determine the efficacy of mRNA-encapsulated lipid nanoparticles in vitro, screening was performed using lipid nanoparticles synthesized with various amine head groups.
The test was conducted by treating 20 ng of mFLuc (SEQ ID NO: 1)-encapsulated lipid nanoparticles into HeLa cells using each lipid nanoparticle synthesized with various amine headgroups (Compounds 1, 2, 4, and 5). The luminescence intensity was measured at 24 hours.

For `CCCCCC/C=C\COC(=O)CCCCCCCCN(CCCCCCCCC(=O)OC/C=C\CCCCCC)CCCN1CCN(CCCN(CCCCCCCCC(=O)OC/C=C\CCCCCC)CCCCCCCCC(=O)OC/C=C\CCCCCC)CC1` [Compound 4], the “Relative luminescence mean value” was 39970.75.
`CCCCCC/C=C\COC(=O)CCCCCCCCN(CCCCCCCCC(=O)OC/C=C\CCCCCC)CCN1CCN(CCCCCCCCC(=O)OC/C=C\CCCCCC)CC1` [Compound 5] was tested, and the “Relative luminescence mean value” was 1022327.75 and the “expression effect (luminescence intensity), in words” value was “highest expression effect”.
